System: Metabolism protein genes
Test: DNA chip mRNA expression in yeast, metabolism protein genes (Table 7)
Assay type: cell-based, Saccharomyces cerevisiae S288C
Summary of the method: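 Value is the scanned fluorescence intensity ratio of exposed versus chemical-free cells. Log-phase S288C yeast in YPD at 25° C. received one toxic substance for two hours, dosed to slow growth without killing; Cy3/Cy5-labeled cDNA from oligo-dT-purified mRNA was hybridized to a whole-genome chip at 65° C.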

## N#Cc1c(Cl)c(Cl)c(Cl)c(C#N)c1Cl [(9), 2,4,5,6-tetrachloro-1,3-benzenedicarbonitrile]
Yeast gene YJL121C
  level of expressed mRNA in the presence/in the absence of chemical substance: 0.1
Yeast gene YJL172W
  The level of expressed mRNA in the presence of chemical substance/The level of expressed mRNA in the absence of chemical substance: 0.7
Yeast gene YJL219W
  The level of expressed mRNA in the presence of chemical substance/The level of expressed mRNA in the absence of chemical substance: 4.0
Yeast gene YJL221C
  The level of expressed mRNA in the presence of chemical substance/The level of expressed mRNA in the absence of chemical substance: 2.7
Yeast gene YJR077C
  level of expressed mRNA in the presence/in the absence of chemical substance: 0.4
Yeast gene YJR137C
  The level of expressed mRNA in the presence of chemical substance/The level of expressed mRNA in the absence of chemical substance: 9.0
Yeast gene YJR143C
  level of expressed mRNA in the presence/in the absence of chemical substance: 0.1
Yeast gene YJR148W
  The level of expressed mRNA in the presence of chemical substance/The level of expressed mRNA in the absence of chemical substance: 0.7
Yeast gene YJR155W
  The level of expressed mRNA in the presence of chemical substance/The level of expressed mRNA in the absence of chemical substance: 38.2
Yeast gene YKL035W
  The level of expressed mRNA in the presence of chemical substance/The level of expressed mRNA in the absence of chemical substance: 0.8
Yeast gene YKL060C
  level of expressed mRNA in the presence/in the absence of chemical substance: 0.3
Yeast gene YKL091C
  The level of expressed mRNA in the presence of chemical substance/The level of expressed mRNA in the absence of chemical substance: 2.3
Yeast gene YKL104C
  The level of expressed mRNA in the presence of chemical substance/The level of expressed mRNA in the absence of chemical substance: 1.4
Yeast gene YKL148C
  level of expressed mRNA in the presence/in the absence of chemical substance: 1.7
Yeast gene YKL152C
  The level of expressed mRNA in the presence of chemical substance/The level of expressed mRNA in the absence of chemical substance: 0.9
Yeast gene YKL157W
  level of expressed mRNA in the presence/in the absence of chemical substance: 1.7
Yeast gene YKL213C
  The level of expressed mRNA in the presence of chemical substance/The level of expressed mRNA in the absence of chemical substance: 4.8
Yeast gene YKL215C
  The level of expressed mRNA in the presence of chemical substance/The level of expressed mRNA in the absence of chemical substance: 1.3
Yeast gene YKR034W
  level of expressed mRNA in the presence/in the absence of chemical substance: 0.5
Yeast gene YKR039W
  The level of expressed mRNA in the presence of chemical substance/The level of expressed mRNA in the absence of chemical substance: 1.9
Yeast gene YLL058W
  The level of expressed mRNA in the presence of chemical substance/The level of expressed mRNA in the absence of chemical substance: 3.5
Yeast gene YLR006C
  level of expressed mRNA in the presence/in the absence of chemical substance: 1.1
Yeast gene YLR058C
  level of expressed mRNA in the presence/in the absence of chemical substance: 0.2
Yeast gene YLR081W
  level of expressed mRNA in the presence/in the absence of chemical substance: 0.1
Yeast gene YLR089C
  level of expressed mRNA in the presence/in the absence of chemical substance: 0.5
Yeast gene YLR142W
  The level of expressed mRNA in the presence of chemical substance/The level of expressed mRNA in the absence of chemical substance: 3.1
Yeast gene YLR164W
  The level of expressed mRNA in the presence of chemical substance/The level of expressed mRNA in the absence of chemical substance: 5.3
Yeast gene YLR180W
  The level of expressed mRNA in the presence of chemical substance/The level of expressed mRNA in the absence of chemical substance: 0.8
Yeast gene YLR260W
  The level of expressed mRNA in the presence of chemical substance/The level of expressed mRNA in the absence of chemical substance: 2.6
Yeast gene YLR273C
  The level of expressed mRNA in the presence of chemical substance/The level of expressed mRNA in the absence of chemical substance: 2.8
Yeast gene YLR284C
  level of expressed mRNA in the presence/in the absence of chemical substance: 0.9
Yeast gene YLR299W
  The level of expressed mRNA in the presence of chemical substance/The level of expressed mRNA in the absence of chemical substance: 4.9
Yeast gene YLR300W
  The level of expressed mRNA in the presence of chemical substance/The level of expressed mRNA in the absence of chemical substance: 0.0
Yeast gene YLR304C
  level of expressed mRNA in the presence/in the absence of chemical substance: 0.1
Yeast gene YLR307W
  The level of expressed mRNA in the presence of chemical substance/The level of expressed mRNA in the absence of chemical substance: 0.6
Yeast gene YLR348C
  The level of expressed mRNA in the presence of chemical substance/The level of expressed mRNA in the absence of chemical substance: 2.1
Yeast gene YLR354C
  level of expressed mRNA in the presence/in the absence of chemical substance: 0.4
Yeast gene YML022W
  level of expressed mRNA in the presence/in the absence of chemical substance: 0.3
Yeast gene YML042W
  The level of expressed mRNA in the presence of chemical substance/The level of expressed mRNA in the absence of chemical substance: 3.8
Yeast gene YML054C
  The level of expressed mRNA in the presence of chemical substance/The level of expressed mRNA in the absence of chemical substance: 4.1
Yeast gene YML070W
  The level of expressed mRNA in the presence of chemical substance/The level of expressed mRNA in the absence of chemical substance: 4.5
Yeast gene YML100W
  The level of expressed mRNA in the presence of chemical substance/The level of expressed mRNA in the absence of chemical substance: 1.7
Yeast gene YML110C
  The level of expressed mRNA in the presence of chemical substance/The level of expressed mRNA in the absence of chemical substance: 2.7
Yeast gene YMR008C
  The level of expressed mRNA in the presence of chemical substance/The level of expressed mRNA in the absence of chemical substance: 0.3
Yeast gene YMR015C
  level of expressed mRNA in the presence/in the absence of chemical substance: 0.1
Yeast gene YMR020W
  The level of expressed mRNA in the presence of chemical substance/The level of expressed mRNA in the absence of chemical substance: 2.3
Yeast gene YMR083W
  level of expressed mRNA in the presence/in the absence of chemical substance: 0.4
Yeast gene YMR105C
  The level of expressed mRNA in the presence of chemical substance/The level of expressed mRNA in the absence of chemical substance: 0.6
Yeast gene YMR189W
  The level of expressed mRNA in the presence of chemical substance/The level of expressed mRNA in the absence of chemical substance: 0.7
Yeast gene YMR205C
  level of expressed mRNA in the presence/in the absence of chemical substance: 0.3
Yeast gene YMR261C
  level of expressed mRNA in the presence/in the absence of chemical substance: 1.6
Yeast gene YMR271C
  The level of expressed mRNA in the presence of chemical substance/The level of expressed mRNA in the absence of chemical substance: 8.0
Yeast gene YMR296C
  The level of expressed mRNA in the presence of chemical substance/The level of expressed mRNA in the absence of chemical substance: 0.4
Yeast gene YMR323W
  level of expressed mRNA in the presence/in the absence of chemical substance: 0.5
Yeast gene YNL012W
  The level of expressed mRNA in the presence of chemical substance/The level of expressed mRNA in the absence of chemical substance: 3.3
Yeast gene YNL025C
  level of expressed mRNA in the presence/in the absence of chemical substance: 1.1
Yeast gene YNL037C
  The level of expressed mRNA in the presence of chemical substance/The level of expressed mRNA in the absence of chemical substance: 0.6
Yeast gene YNL045W
  The level of expressed mRNA in the presence of chemical substance/The level of expressed mRNA in the absence of chemical substance: 1.3
Yeast gene YNL104C
  The level of expressed mRNA in the presence of chemical substance/The level of expressed mRNA in the absence of chemical substance: 1.1
Yeast gene YNL106C
  The level of expressed mRNA in the presence of chemical substance/The level of expressed mRNA in the absence of chemical substance: 0.7
Yeast gene YNL169C
  The level of expressed mRNA in the presence of chemical substance/The level of expressed mRNA in the absence of chemical substance: 1.1
Yeast gene YNL231C
  The level of expressed mRNA in the presence of chemical substance/The level of expressed mRNA in the absence of chemical substance: 2.2
Yeast gene YNL264C
  The level of expressed mRNA in the presence of chemical substance/The level of expressed mRNA in the absence of chemical substance: 3.3
Yeast gene YNL322C
  The level of expressed mRNA in the presence of chemical substance/The level of expressed mRNA in the absence of chemical substance: 0.7
Yeast gene YNL331C
  The level of expressed mRNA in the presence of chemical substance/The level of expressed mRNA in the absence of chemical substance: 42.6
Yeast gene YNL332W
  The level of expressed mRNA in the presence of chemical substance/The level of expressed mRNA in the absence of chemical substance: 3.3
Yeast gene YNR002C
  The level of expressed mRNA in the presence of chemical substance/The level of expressed mRNA in the absence of chemical substance: 3.9
Yeast gene YNR019W
  The level of expressed mRNA in the presence of chemical substance/The level of expressed mRNA in the absence of chemical substance: 1.8
Yeast gene YNR033W
  The level of expressed mRNA in the presence of chemical substance/The level of expressed mRNA in the absence of chemical substance: 3.6
Yeast gene YNR059W
  The level of expressed mRNA in the presence of chemical substance/The level of expressed mRNA in the absence of chemical substance: 1.8
Yeast gene YNR071C
  The level of expressed mRNA in the presence of chemical substance/The level of expressed mRNA in the absence of chemical substance: 3.1
Yeast gene YOL058W
  The level of expressed mRNA in the presence of chemical substance/The level of expressed mRNA in the absence of chemical substance: 0.1
Yeast gene YOL086C
  level of expressed mRNA in the presence/in the absence of chemical substance: 0.1
Yeast gene YOL126C
  The level of expressed mRNA in the presence of chemical substance/The level of expressed mRNA in the absence of chemical substance: 0.8
Yeast gene YOL143C
  The level of expressed mRNA in the presence of chemical substance/The level of expressed mRNA in the absence of chemical substance: 0.8
Yeast gene YOL153C
  The level of expressed mRNA in the presence of chemical substance/The level of expressed mRNA in the absence of chemical substance: 2.5
Yeast gene YOL156W
  level of expressed mRNA in the presence/in the absence of chemical substance: 2.3
Yeast gene YOL165C
  The level of expressed mRNA in the presence of chemical substance/The level of expressed mRNA in the absence of chemical substance: 46.9
Yeast gene YOR002W
  level of expressed mRNA in the presence/in the absence of chemical substance: 0.8
Yeast gene YOR085W
  level of expressed mRNA in the presence/in the absence of chemical substance: 0.5
Yeast gene YOR099W
  The level of expressed mRNA in the presence of chemical substance/The level of expressed mRNA in the absence of chemical substance: 0.6
Yeast gene YOR108W
  level of expressed mRNA in the presence/in the absence of chemical substance: 0.4
Yeast gene YOR128C
  level of expressed mRNA in the presence/in the absence of chemical substance: 0.3
Yeast gene YOR130C
  The level of expressed mRNA in the presence of chemical substance/The level of expressed mRNA in the absence of chemical substance: 2.0
Yeast gene YOR136W
  The level of expressed mRNA in the presence of chemical substance/The level of expressed mRNA in the absence of chemical substance: 0.3
Yeast gene YOR142W
  level of expressed mRNA in the presence/in the absence of chemical substance: 1.1
Yeast gene YOR176W
  level of expressed mRNA in the presence/in the absence of chemical substance: 1.0
Yeast gene YOR178C
  level of expressed mRNA in the presence/in the absence of chemical substance: 0.2
Yeast gene YOR226C
  The level of expressed mRNA in the presence of chemical substance/The level of expressed mRNA in the absence of chemical substance: 1.3
Yeast gene YOR336W
  The level of expressed mRNA in the presence of chemical substance/The level of expressed mRNA in the absence of chemical substance: 1.7
Yeast gene YOR347C
  The level of expressed mRNA in the presence of chemical substance/The level of expressed mRNA in the absence of chemical substance: 0.5
Yeast gene YOR377W
  The level of expressed mRNA in the presence of chemical substance/The level of expressed mRNA in the absence of chemical substance: 3.8
Yeast gene YPL017C
  The level of expressed mRNA in the presence of chemical substance/The level of expressed mRNA in the absence of chemical substance: 3.0
Yeast gene YPL028W
  level of expressed mRNA in the presence/in the absence of chemical substance: 1.2
Yeast gene YPL057C
  level of expressed mRNA in the presence/in the absence of chemical substance: 0.4
Yeast gene YPL135W
  level of expressed mRNA in the presence/in the absence of chemical substance: 0.5
Yeast gene YPR026W
  The level of expressed mRNA in the presence of chemical substance/The level of expressed mRNA in the absence of chemical substance: 0.9
Yeast gene YPR113W
  level of expressed mRNA in the presence/in the absence of chemical substance: 0.4
Yeast gene YPR167C
  The level of expressed mRNA in the presence of chemical substance/The level of expressed mRNA in the absence of chemical substance: 76.6
Yeast gene YPR183W
  level of expressed mRNA in the presence/in the absence of chemical substance: 0.9

Source: patent US8192962B2, “Processes for detecting toxic substances” (Daikin Industries, Ltd., priority 2001, dated 2012)
